# In patent US8034574B2, “Screening method for prokinetic agent” (Astellas Pharma Inc., priority 2006, dated 2011):
# Tests used:
# [1] = tested on: rat TRPA1 gene; experiment: Suppression of rat TRPA1 gene expression by siRNA in RIN14B cells (real time PCR); assay type: cell-based; conditions: siRNA 10 nM, 2 days
# Experimental: The expression of the TRPA1 gene in rat tissues, a rat EC cell fraction and RIN14B cells was analyzed by real time PCR using a sequence detector (PRISM7900; Applied Biosystems). With the first strand cDNA derived from rat tissue, rat EC cells or RIN14B cells, obtained in the aforementioned Example, as the template, using a fluorescent reagent (SYBR Green PCR Core Reagents Kit; Applied Biosystems), PCR was performed. The aforementioned PCR was performed using an oligonucleotide consisting of the base sequence shown by SEQ ID NO:13 as a sense primer, and an oligonucleotide consisting of the base sequence shown by SEQ ID NO:14 as an antisense primer; first, thermal denaturation was performed at 95° C. (10 minutes), after which a cycle consisting of heat treatment at 95° C. (15 seconds)/59° C. (1 minute) was repeated 45 times. Each primer is a sequence specific for a gene consisting of the base sequence shown by SEQ ID NO:5. […]
# RIN14B cells were sown to a 60 mm Petri dish at 6×10^5 cells and cultured for 1 day. After various sequences of siRNA for rat TRPA1 (10 nM), designed using the siRNA design system siDirect (RNAi), were introduced using a transformation reagent (LIPOFECTAMINE2000; Invitrogen Japan K.K.), the RIN14B cells were further cultured for 2 days, and the expression level of the rat TRPA1 gene was measured. […]
# [2] = tested on: RIN14B cells; experiment: Channel activity in RIN14B cells using calcium-sensitive fluorescent reagent (FLIPR); assay type: cell-based, rat; conditions: siRNA-introduced RIN14B; allyl isothiocyanate 300 μM
# Experimental: RIN14B cells (5×10^4 cells), wherein the expression of TRPA1 was confirmed in Example 10, were incubated in the presence of a calcium-sensitive fluorescent reagent (Fluo3-AM; DOJINDO) at 37° C. for 1 hour to thereby incorporate the calcium-sensitive fluorescent reagent in the cells, after which the cells were washed with physiological saline to remove the calcium-sensitive fluorescent reagent that had not been incorporated in the cells. To the cells obtained, physiological saline supplemented with allyl isothiocyanate, cinnamic aldehyde, or acrolein was added; the fluorescence emitted by the cells was measured over time. The above-described measurements were performed using an automated fluorescence detection apparatus (FLIPR; Molecular Device). […] Ruthenium Red was added concurrently and a measurement was performed to determine whether or not calcium inflow in the cells was be inhibited.
# [3] = tested on: RIN14B cells; experiment: Serotonin secretion from RIN14B cells (immunoassay); assay type: cell-based, rat; conditions: siRNA-introduced RIN14B; listed as #971 siRNA
# Experimental: After RIN14B cells in culture in a Petri dish were detached using a PBS containing 1 mM EDTA, they were sown to a 96-well plate and cultured for 2 days. The medium used was RPMI1640 (Invitrogen Japan K.K.) supplemented with 10% fetal bovine serum (ICN), 100 U/ml penicillin, and 100 μg/ml streptomycin. After the cells were once washed with Hanks' Balanced Salt Solutions (HBSS, Invitrogen) supplemented with 0.1% BSA and 10 μM fluoxetine (TOCRIS), each TRPA1 activator, previously diluted/prepared with the above-described HBSS, was added, and the RIN14B cells were cultured at 37° C. in the presence of 5% CO2 for 20 minutes. After the cultivation, the cell supernatant was recovered, and stored under freezing. The serotonin content in the supernatant was measured using a commercially available serotonin immunoassay kit (Beckman).
substance,measurement,setting,value
"#971: a rat TRPA1-specific siRNA (sense strand SEQ ID NO:15, antisense strand SEQ ID NO:16) (sense CUGGCAGACUACCUAAUUUCA; antisense AAAUUAGGUAGUCUGCCAGGU; listed as RNA, chemistry not given here)",expression level of the rat TRPA1 gene,[1],a reduction in the expression level of the rat TRPA1 was observed
same,suppression of intracellular calcium inflow activity of allyl isothiocyanate,[2],67.3%
same,serotonin secretion increasing activity of cinnamic aldehyde in siRNA-introduced RIN14B,[3],suppressed cinnamic aldehyde-induced serotonin release
